Test results from patent US9765056B2, “Indole and pyrrole compounds, a process for their preparation and pharmaceutical compositions containing them” (LES LABORATOIRES SERVIER, priority 2013, dated 2017).
Where a name gives a salt, the structure may show the parent alone.

Columns and labels:
[1] = test system: RS4;11 leukaemia tumour line; experiment: In vitro cytotoxicity, Microculture Tetrazolium Assay (MTT); format: cell-based; details: Homo sapiens; RS4;11 cells, 48 hours exposure
Protocol: The cytotoxicity studies were carried out on the RS4;11 leukaemia tumour line.
The cells are distributed onto microplates and exposed to the test compounds for 48 hours. The cell viability is then quantified by a colorimetric assay, the Microculture Tetrazolium Assay (Cancer Res., 1987, 47, 939-942).

Bcl-2 protein = Bcl-2 protein (histag-Bcl-2, UniProtKB P10415) (Homo sapiens (Human), UniProt P10415); experiment: Inhibition of Bcl-2 by the fluorescence polarisation technique; format: binding; details: fluorescence polarisation test; method A, or method B where underlined (underlining not visible); read-out: IC50 (nM) Bcl-2 FP
Text: Inhibition of Bcl-2 by the fluorescence polarisation technique

Bcl-2 protein, sequence (P10415 whole entry): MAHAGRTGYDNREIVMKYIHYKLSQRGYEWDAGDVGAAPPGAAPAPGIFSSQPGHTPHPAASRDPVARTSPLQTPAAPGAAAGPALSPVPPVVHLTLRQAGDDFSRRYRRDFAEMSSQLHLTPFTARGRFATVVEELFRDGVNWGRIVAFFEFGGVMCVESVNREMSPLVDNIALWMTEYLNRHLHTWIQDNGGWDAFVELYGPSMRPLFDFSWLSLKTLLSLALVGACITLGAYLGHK

Structure (SMILES) | IC50 (Bcl-2 protein) [nM] | IC50 [1] [nM]
COc1cc(-n2cc(C(=O)N(c3ccccc3)c3ccc(O)cc3)c3ccccc32)c(C(=O)N2Cc3ccccc3C[C@H]2CN2CCCCC2)cc1O [Example 176, 1-{4-Hydroxy-5-methoxy-2-[(3S)-3-(piperidin-1-ylmethyl)-1,2,3,4-tetrahydroisoquinoline-2-carbonyl]phenyl}-N-(4-hydroxyphenyl)-N-phenyl-1H-indole-3-carboxamide hydrochloride] | 6.2 | 225
CN1CCN(C[C@@H]2Cc3ccccc3CN2C(=O)c2cc3c(cc2-n2cc(C(=O)N(c4ccc(O)cc4)c4ccc(O)cc4)c4ccccc42)OCO3)CC1 [Example 41, N,N-bis(4-Hydroxyphenyl)-1-(6-{[(3S)-3-[(4-methylpiperazin-1-yl)-methyl]-3,4-dihydroisoquinolin-2(1H)-yl]carbonyl}-1,3-benzodioxol-5-yl)-1H-indole-3-carboxamide] | 3.7 | 52.2
Cc1cc(C(=O)N(c2ccc(O)cc2)c2ccc3[nH]ccc3c2)cn1-c1cc(Cl)ccc1C(=O)N1Cc2ccccc2C[C@H]1CN1CCN(C)CC1 [Example 86, 1-(5-Chloro-2-{[(3S)-3-[(4-methylpiperazin-1-yl)methyl]-3,4-dihydroisoquinolin-2(1H)-yl]carbonyl}phenyl)-N-(4-hydroxyphenyl)-N-(1H-indol-5-yl)-5-methyl-1H-pyrrole-3-carboxamide] | 5.4 | 67.7
COc1ccc(C(=O)N2Cc3ccccc3C[C@H]2CN2CCN(C)CC2)c(-n2cc(C(=O)N(c3ccccc3)c3ccc(O)cc3)c3ccccc32)c1 [Example 168, N-(4-Hydroxyphenyl)-1-{5-methoxy-2-[(3S)-3-[(4-methylpiperazin-1-yl)methyl]-1,2,3,4-tetrahydroisoquinoline-2-carbonyl]phenyl}-N-phenyl-1H-indole-3-carboxamide dihydrochloride] | 11.4 | 188
CN(C)c1ccc(-n2nc(C(=O)N(c3ccccc3)c3ccccc3)c3ccccc32)c(C(=O)N2Cc3ccccc3C[C@H]2CN)c1 [Example 141, 1-{2-[(3S)-3-(Aminomethyl)-1,2,3,4-tetrahydroisoquinoline-2-carbonyl]-4-(dimethylamino)phenyl}-N,N-diphenyl-1H-indazole-3-carboxamide] | 56.7 | 2280
Cc1cc(C(=O)N(c2ccc(O)cc2)c2ccc3c(ccn3C)c2)cn1-c1cc2occc2cc1C(=O)N1Cc2ccccc2C[C@H]1CN1CCOCC1 [Example 119, N-(4-Hydroxyphenyl)-5-methyl-N-(1-methyl-1H-indol-5-yl)-1-(5-{[(3S)-3-(morpholin-4-ylmethyl)-3,4-dihydroisoquinolin-2(1H)-yl]carbonyl}-1-benzofuran-6-yl)-1H-pyrrole-3-carboxamide hydrochloride] | 28.4 | 96.4
COc1ccc(C(=O)N2Cc3ccccc3C[C@H]2CN)c(-n2cc(C(=O)N(c3ccccc3)c3ccc(O)cc3)c3ccccc32)c1 [Example 146, 1-{2-[(3S)-3-(Aminomethyl)-1,2,3,4-tetrahydroisoquinoline-2-carbonyl]-5-methoxyphenyl}-N-(4-hydroxyphenyl)-N-phenyl-1H-indole-3-carboxamide] | 17.2 | 346
Cc1cc(C(=O)N(c2ccc(O)cc2)c2ccc3[nH]ccc3c2)cn1-c1cc(Br)ccc1C(=O)N1Cc2ccccc2C[C@H]1CN1CCN(C2CCC2)CC1 [Example 102, 1-(5-Bromo-2-{[(3S)-3-[(4-cyclobutylpiperazin-1-yl)methyl]-3,4-dihydroisoquinolin-2(1H)-yl]carbonyl}phenyl)-N-(4-hydroxyphenyl)-N-(1H-indol-5-yl)-5-methyl-1H-pyrrole-3-carboxamide] | 8.4 | 108
CN1CCN(C[C@@H]2Cc3ccccc3CN2C(=O)c2ccc(Br)cc2-n2cc(C(=O)N(c3ccc(O)cc3)c3ccc(Cl)cc3)c3ccccc32)CC1 [Example 59, 1-(5-Bromo-2-{[(3S)-3-[(4-methylpiperazin-1-yl)methyl]-3,4-dihydroisoquinolin-2(1H)-yl]carbonyl}phenyl)-N-(4-chlorophenyl)-N-(4-hydroxyphenyl)-1H-indole-3-carboxamide] | 19.2 | 206

Continued by falling IC50 (Bcl-2 protein), values first:

IC50 (Bcl-2 protein) [nM] | Structure (SMILES) | IC50 [1] [nM]
168 | O=C(c1cn(-c2ccccc2C(=O)N2Cc3ccccc3C[C@H]2CN2CCCCC2)c2ccccc12)N(c1ccccc1)c1ccc(O)cc1 [Example 173, N-(4-Hydroxyphenyl)-N-phenyl-1-{2-[(3S)-3-(piperidin-1-ylmethyl)-1,2,3,4-tetrahydroisoquinoline-2-carbonyl]phenyl}-1H-indole-3-carboxamide] | 2040
85.5 | Cc1cc(C(=O)N(c2ccc(O)cc2)c2ccc3[nH]ccc3c2)cn1-c1cc(Br)ccc1C(=O)N1Cc2ccccc2C[C@H]1CN1CCC(F)(F)CC1 [Example 79, 1-(5-Bromo-2-{[(3S)-3-[(4,4-difluoropiperidin-1-yl)methyl]-3,4-dihydroisoquinolin-2(1H)-yl]carbonyl}phenyl)-N-(4-hydroxyphenyl)-N-(1H-indol-5-yl)-5-methyl-1H-pyrrole-3-carboxamide] | 344
79.7 | Cc1ccc(N(C(=O)c2cn(-c3cc4c(cc3C(=O)N3Cc5ccccc5C[C@H]3CN3CCN(C)CC3)OCO4)c3ccccc23)c2ccc3[nH]ncc3c2)cc1 [Example 68, N-(1H-Indazol-5-yl)-N-(4-methylphenyl)-1-(6-{[(3S)-3-[(4-methylpiperazin-1-yl)methyl]-3,4-dihydroisoquinolin-2(1H)-yl]carbonyl}-1,3-benzodioxol-5-yl)-1H-indole-3-carboxamide hydrochloride] | 856
74.3 | Cc1cc(C(=O)N(c2ccccc2)c2ccc(O)cc2)cn1-c1cc(F)c(F)cc1C(=O)N1Cc2ccccc2C[C@H]1CN1CCN(C)CC1 [Example 20, 1-(4,5-Difluoro-2-{[(3S)-3-[(4-methylpiperazin-1-yl)methyl]-3,4-dihydroisoquinolin-2(1H)-yl]carbonyl}phenyl)-N-(4-hydroxyphenyl)-5-methyl-N-phenyl-1H-pyrrole-3-carboxamide] | 900
21.6 | NC[C@@H]1Cc2ccccc2CN1C(=O)c1cc(NC(=O)CSc2ccccc2)ccc1-n1nc(C(=O)N(c2ccccc2)c2ccccc2)c2ccccc21 [Example 149, 1-{2-[(3S)-3-(Aminomethyl)-1,2,3,4-tetrahydroisoquinoline-2-carbonyl]-4-[2-(phenylsulphanyl)acetamido]phenyl}-N,N-diphenyl-1H-indazole-3-carboxamide] | 340
18.9 | NC[C@@H]1Cc2ccccc2CN1C(=O)c1ccccc1-n1cc(C(=O)N(c2ccccc2)c2ccc(O)cc2)c2ccccc21 [Example 131, 1-{2-[(3S)-3-(Aminomethyl)-1,2,3,4-tetrahydroisoquinoline-2-carbonyl}phenyl]-N-(4-hydroxyphenyl)-N-phenyl-1H-indole-3-carboxamide] | 469
17.6 | CN1CCN(C[C@@H]2Cc3ccccc3CN2C(=O)c2cc3c(cc2-n2cc(C(=O)N(c4ccc(O)c(Cl)c4)c4ccc5[nH]ccc5c4)c4ccccc42)OCO3)CC1 [Example 82, N-(3-Chloro-4-hydroxyphenyl)-N-(1H-indol-5-yl)-1-(6-{[(3S)-3-[(4-methylpiperazin-1-yl)methyl]-3,4-dihydroisoquinolin-2(1H)-yl]carbonyl}-1,3-benzodioxol-5-yl)-1H-indole-3-carboxamide hydrochloride] | 373
10.7 | Cc1cc(C(=O)N(c2ccccc2)c2ccc(O)cc2)cn1-c1cc(Br)ccc1C(=O)N1Cc2ccccc2C[C@H]1CN1CCN(C)CC1 [Example 22, 1-(5-Bromo-2-{[(3S)-3-[(4-methylpiperazin-1-yl)methyl]-3,4-dihydroisoquinolin-2(1H)-yl]carbonyl}phenyl)-N-(4-hydroxyphenyl)-5-methyl-N-phenyl-1H-pyrrole-3-carboxamide] | 142
6.4 | Cc1cc(C(=O)N(c2ccc(O)cc2)c2ccc3c(ccn3C)c2)cn1-c1cc(Cl)ccc1C(=O)N1Cc2ccccc2C[C@H]1CN(C)C [Example 95, 1-(5-Chloro-2-{[(3S)-3-[(dimethylamino)methyl]-3,4-dihydroisoquinolin-2(1H)-yl]carbonyl}phenyl)-N-(4-hydroxyphenyl)-5-methyl-N-(1-methyl-1H-indol-5-yl)-1H-pyrrole-3-carboxamide hydrochloride] | 264
5.9 | Cc1cc(C(=O)N(c2ccc(O)cc2)c2ccc(O)cc2)cn1-c1cc(Cl)ccc1C(=O)N1Cc2ccccc2C[C@H]1CN1CCN(C)CC1 [Example 67, 1-(5-Chloro-2-{[(3S)-3-[(4-methylpiperazin-1-yl)methyl]-3,4-dihydroisoquinolin-2(1H)-yl]carbonyl}phenyl)-N,N-bis(4-hydroxyphenyl)-5-methyl-1H-pyrrole-3-carboxamide] | 101
3.9 | CN1CCN(C[C@@H]2Cc3ccccc3CN2C(=O)c2ccc(Cl)cc2-n2cc(C(=O)N(c3ccc(O)cc3)c3ccc(O)cc3)c3ccccc32)CC1 [Example 73, 1-(5-Chloro-2-{[(3S)-3-[(4-methylpiperazin-1-yl)methyl]-3,4-dihydroisoquinolin-2(1H)-yl]carbonyl}phenyl)-N,N-bis(4-hydroxyphenyl)-1H-indole-3-carboxamide] | 51.4
3.7 | Cc1cc(C(=O)N(c2ccc(O)cc2)c2ccc(O)cc2)cn1-c1cc2c(cc1C(=O)N1Cc3ccccc3C[C@H]1CN1CCN(C)CC1)OCO2 [Example 83, N,N-bis(4-Hydroxyphenyl)-5-methyl-1-(6-{[(3S)-3-[(4-methylpiperazin-1-yl)methyl]-3,4-dihydroisoquinolin-2(1H)-yl]carbonyl}-1,3-benzodioxol-5-yl)-1H-pyrrole-3-carboxamide] | 350
